Results reported in PubChem BioAssay AID1745844 (Carcinogenic Potency Database (CPDB), 2022).
Activity calls are given as the source filed them. How the calls were made is not given here.

Tested on: rodent lifetime carcinogenesis bioassay, tumor incidence TD50
Experiment: carcinogenic potency in animals, long-term in vivo studies, CPDB compilation (AID 1745844)
[1] = mouse, strain B6C3F1, females, in feed, site: any site (literature study), lesion: several types, types named in the paper, dosed 103 weeks, study length 107 weeks
[2] = mouse, strain B6C3F1, females, in feed, site: liver, lesion: hepatocellular adenoma + hepatocellular carcinoma + neoplastic nodule, dosed 103 weeks, study length 107 weeks
[3] = mouse, strain B6C3F1, males, in feed, site: any site (literature study), lesion: several types, types named in the paper, dosed 103 weeks, study length 107 weeks

## Oc1ccc(Cl)cc1Cl
mouse, strain B6C3F1, females, in feed, site: any site (literature study), lesion: several types, types named in the paper, dosed 103 weeks, study length 104 weeks
  carcinogen call: negative (inactive)
mouse, strain B6C3F1, males, in feed, site: forestomach, lesion: squamous-cell carcinoma + squamous-cell papilloma, dosed 103 weeks, study length 104 weeks
  TD50: 12400 mg/kg/day (inactive)
mouse, strain B6C3F1, males, in feed, site: liver, lesion: hepatocellular adenoma + hepatocellular carcinoma + neoplastic nodule, dosed 103 weeks, study length 104 weeks
  TD50: 458000 mg/kg/day
mouse, strain B6C3F1, males, in feed, site: lung, lesion: alveolar/bronchiolar adenoma + alveolar/bronchiolar carcinoma, dosed 103 weeks, study length 104 weeks
  TD50: 13300 mg/kg/day
rat, strain Fischer 344, females, in feed, site: any site (literature study), lesion: several types, types named in the paper, dosed 103 weeks, study length 104 weeks
  carcinogen call: negative (inactive)
rat, strain Fischer 344, males, in feed, site: any site (literature study), lesion: several types, types named in the paper, dosed 103 weeks, study length 104 weeks
  carcinogen call: negative (inactive)

## C1CCCNCCC1
rat, strain MRC, females, in drinking water, site: any site (literature study), lesion: several types, types named in the paper, dosed 75 weeks, study length 104 weeks
  TD50: 15.8 mg/kg/day
rat, strain MRC, males, in drinking water, site: any site (literature study), lesion: several types, types named in the paper, dosed 75 weeks, study length 104 weeks
  TD50: 6.37 mg/kg/day

## Nc1cc(Cl)c(-c2cc(Cl)c(N)cc2Cl)cc1Cl
mouse, strain dd, females, in feed, site: all sites, lesion: malignant lymphoma, dosed 104 weeks, study length 104 weeks
  TD50: 109 mg/kg/day
mouse, strain dd, females, in feed, site: any site (literature study), lesion: malignant tumor, dosed 104 weeks, study length 104 weeks
  TD50: 87.2 mg/kg/day
rat, strain Wistar, females, in feed, site: liver, lesion: hepatoma, dosed 104 weeks, study length 104 weeks
  TD50: 735 mg/kg/day
rat, strain Wistar, females, in feed, site: urinary bladder, lesion: transitional-cell carcinoma, dosed 104 weeks, study length 104 weeks
  TD50: 2310 mg/kg/day
rat, strain Wistar, males, in feed, site: urinary bladder, lesion: transitional-cell carcinoma, dosed 104 weeks, study length 104 weeks
  TD50: 561 mg/kg/day

## C=CC(OC(C)=O)c1ccc2c(c1)OCO2 (stereo unspecified)
rat, strain Charles River CD (Sprague-Dawley), males, in feed, site: any site (literature study), lesion: several types, types named in the paper, dosed 36 weeks, study length 52 weeks
  TD50: 21.1 mg/kg/day
rat, strain Charles River CD (Sprague-Dawley), males, in feed, site: any site (literature study), lesion: several types, types named in the paper, dosed 47 weeks, study length 69 weeks
  TD50: 32.4 mg/kg/day
rat, strain Charles River CD (Sprague-Dawley), males, in feed, site: forestomach, lesion: papilloma, dosed 36 weeks, study length 52 weeks
  TD50: 21.1 mg/kg/day
rat, strain Charles River CD (Sprague-Dawley), males, in feed, site: forestomach, lesion: papilloma, dosed 47 weeks, study length 69 weeks
  TD50: 30.7 mg/kg/day
rat, strain Charles River CD (Sprague-Dawley), males, in feed, site: liver, lesion: carcinoma, dosed 47 weeks, study length 69 weeks
  carcinogen call: negative (inactive)
rat, strain Charles River CD (Sprague-Dawley), males, in feed, site: liver, lesion: hepatocellular carcinoma, dosed 36 weeks, study length 52 weeks
  TD50: 348 mg/kg/day (inactive)

## Clc1cc(Cl)cc(-c2cc(Cl)cc(Cl)c2)c1
rat, strain Donryu, females, in feed, site: liver, lesion: one or several types, types not named, dosed 26 weeks, study length 84 weeks
  carcinogen call: negative (inactive)

## CCOP(=S)(OCC)SC1OCCOC1SP(=S)(OCC)OCC (stereo unspecified)
mouse, strain B6C3F1, females, in feed, site: any site (literature study), lesion: several types, types named in the paper, dosed 78 weeks, study length 90 weeks
  TD50: 2590 mg/kg/day (inactive)
mouse, strain B6C3F1, females, in feed, site: lung, lesion: alveolar/bronchiolar adenoma + alveolar/bronchiolar carcinoma, dosed 78 weeks, study length 90 weeks
  TD50: 1820 mg/kg/day
mouse, strain B6C3F1, males, in feed, site: any site (literature study), lesion: several types, types named in the paper, dosed 78 weeks, study length 90 weeks
  carcinogen call: negative (inactive)
mouse, strain B6C3F1, males, in feed, site: lung, lesion: alveolar/bronchiolar adenoma + alveolar/bronchiolar carcinoma, dosed 78 weeks, study length 90 weeks
  TD50: 628 mg/kg/day
rat, strain Osborne-Mendel, females, in feed, site: any site (literature study), lesion: several types, types named in the paper, dosed 78 weeks, study length 111 weeks
  carcinogen call: negative (inactive)
rat, strain Osborne-Mendel, males, in feed, site: any site (literature study), lesion: several types, types named in the paper, dosed 78 weeks, study length 111 weeks
  carcinogen call: negative (inactive)

## CC(C)(c1ccc(O)cc1)c1ccc(O)cc1
[1]
  carcinogen call: negative (inactive)
[2]
  TD50: 13100 mg/kg/day
mouse, strain B6C3F1, females, in feed, site: lung, lesion: alveolar/bronchiolar adenoma + alveolar/bronchiolar carcinoma, dosed 103 weeks, study length 107 weeks
  TD50: 41400 mg/kg/day
mouse, strain B6C3F1, males, in feed, site: all sites, lesion: leukemia + lymphoma, dosed 103 weeks, study length 107 weeks
  TD50: 445 mg/kg/day (inactive)
mouse, strain B6C3F1, males, in feed, site: all sites, lesion: lymphoma, dosed 103 weeks, study length 107 weeks
  TD50: 508 mg/kg/day
[3]
  TD50: 1.32e+06 mg/kg/day
mouse, strain B6C3F1, males, in feed, site: pituitary gland, lesion: chromophobe carcinoma, dosed 103 weeks, study length 107 weeks
  TD50: 6690 mg/kg/day
rat, strain Fischer 344, females, in feed, site: any site (literature study), lesion: several types, types named in the paper, dosed 103 weeks, study length 108 weeks
  carcinogen call: negative (inactive)
rat, strain Fischer 344, females, in feed, site: liver, lesion: hepatocellular adenoma + hepatocellular carcinoma + neoplastic nodule, dosed 103 weeks, study length 108 weeks
  TD50: 595 mg/kg/day
rat, strain Fischer 344, males, in feed, site: mammary gland, lesion: fibroadenoma, dosed 103 weeks, study length 108 weeks
  TD50: 675 mg/kg/day (inactive)

## FC(F)OC(Cl)C(F)(F)F (stereo unspecified)
mouse, strain Swiss Webster, females, inhaled, site: liver, lesion: basophil adenoma, dosed 78 weeks, study length 81 weeks
  carcinogen call: negative (inactive)
mouse, strain Swiss Webster, females, inhaled, site: lung, lesion: alveolar-cell adenoma, dosed 78 weeks, study length 81 weeks
  TD50: 30000 mg/kg/day (inactive)
mouse, strain Swiss Webster, males, inhaled, site: liver, lesion: basophil adenoma, dosed 78 weeks, study length 81 weeks
  carcinogen call: negative (inactive)
mouse, strain Swiss Webster, males, inhaled, site: lung, lesion: alveolar-cell adenoma, dosed 78 weeks, study length 81 weeks
  carcinogen call: negative (inactive)

## Cc1cccc(N)c1
mouse, strain CD-1 HaM/ICR, females, in feed, site: any site (literature study), lesion: several types, types named in the paper, dosed 77 weeks, study length 81 weeks
  TD50: 1950 mg/kg/day (inactive)
mouse, strain CD-1 HaM/ICR, females, in feed, site: any site (literature study), lesion: several types, types named in the paper, dosed 77 weeks, study length 90 weeks
  carcinogen call: negative (inactive)
mouse, strain CD-1 HaM/ICR, females, in feed, site: liver, lesion: several types, types named in the paper, dosed 77 weeks, study length 81 weeks
  carcinogen call: negative (inactive)
mouse, strain CD-1 HaM/ICR, females, in feed, site: liver, lesion: several types, types named in the paper, dosed 77 weeks, study length 90 weeks
  TD50: 9990 mg/kg/day (inactive)
mouse, strain CD-1 HaM/ICR, females, in feed, site: lung, lesion: several types, types named in the paper, dosed 77 weeks, study length 81 weeks
  carcinogen call: negative (inactive)
mouse, strain CD-1 HaM/ICR, females, in feed, site: lung, lesion: several types, types named in the paper, dosed 77 weeks, study length 90 weeks
  carcinogen call: negative (inactive)
mouse, strain CD-1 HaM/ICR, males, in feed, site: liver, lesion: hepatoma, dosed 77 weeks, study length 90 weeks
  TD50: 1440 mg/kg/day
mouse, strain CD-1 HaM/ICR, males, in feed, site: liver, lesion: several types, types named in the paper, dosed 77 weeks, study length 90 weeks
  TD50: 6770 mg/kg/day
mouse, strain CD-1 HaM/ICR, males, in feed, site: lung, lesion: several types, types named in the paper, dosed 77 weeks, study length 90 weeks
  carcinogen call: negative (inactive)
rat, strain Charles River CD (Sprague-Dawley), males, in feed, site: any site (literature study), lesion: several types, types named in the paper, dosed 77 weeks, study length 98 weeks
  TD50: 98.4 mg/kg/day (inactive)
rat, strain Charles River CD (Sprague-Dawley), males, in feed, site: liver, lesion: several types, types named in the paper, dosed 77 weeks, study length 98 weeks
  carcinogen call: negative (inactive)

## Nc1ccccc1
[1]
  TD50: 9150 mg/kg/day (inactive)
[2]
  TD50: 8850 mg/kg/day
[3]
  carcinogen call: negative (inactive)
rat, strain Fischer 344, females, in feed, site: liver, lesion: hepatocellular adenoma + hepatocellular carcinoma + neoplastic nodule, dosed 103 weeks, study length 107 weeks
  TD50: 13000 mg/kg/day
rat, strain Fischer 344, females, in feed, site: multiple organs + spleen, lesion: fibrosarcoma + sarcoma, NOS, dosed 103 weeks, study length 107 weeks
  TD50: 1740 mg/kg/day
rat, strain Fischer 344, males, in feed, site: adrenal gland, lesion: pheochromocytoma + pheochromocytoma, malignant, dosed 103 weeks, study length 107 weeks
  TD50: 556 mg/kg/day
rat, strain Fischer 344, males, in feed, site: any site (literature study), lesion: several types, types named in the paper, dosed 103 weeks, study length 107 weeks
  TD50: 124 mg/kg/day
rat, strain Fischer 344, males, in feed, site: body cavities + multiple organs + spleen, lesion: mesothelioma, NOS + fibrosarcoma + hemangiosarcoma + sarcoma, NOS, dosed 103 weeks, study length 107 weeks
  TD50: 88 mg/kg/day
rat, strain Fischer 344, males, in feed, site: body cavities + multiple organs + spleen, lesion: mesothelioma, NOS + fibrosarcoma + sarcoma, NOS, dosed 103 weeks, study length 107 weeks
  TD50: 263 mg/kg/day
rat, strain Fischer 344, males, in feed, site: body cavities + multiple organs + spleen, lesion: mesothelioma, NOS + hemangiosarcoma, dosed 103 weeks, study length 107 weeks
  TD50: 146 mg/kg/day
rat, strain Fischer 344, males, in feed, site: body cavities + multiple organs, lesion: mesothelioma, NOS + fibrosarcoma + sarcoma, NOS, dosed 103 weeks, study length 107 weeks
  TD50: 572 mg/kg/day
rat, strain Fischer 344, males, in feed, site: spleen, lesion: fibrosarcoma + sarcoma, NOS, dosed 103 weeks, study length 107 weeks
  TD50: 451 mg/kg/day
rat, strain Fischer 344, males, in feed, site: spleen, lesion: hemangiosarcoma, dosed 103 weeks, study length 107 weeks
  TD50: 160 mg/kg/day

## CC(C)Oc1ccccc1OC(=O)N(C)N=O
rat, strain Sprague-Dawley, males, by gavage, site: forestomach, lesion: carcinoma, dosed 31 weeks, study length 90 weeks
  TD50: 0.434 mg/kg/day
rat, strain Sprague-Dawley, males, by gavage, site: forestomach, lesion: one or several types, types not named, dosed 31 weeks, study length 90 weeks
  TD50: 0.364 mg/kg/day
